The values below are quoted from earlier work in patent US20110281920A1, “INJECTABLE PARASITICIDAL FORMULATIONS OF LEVAMISOLE AND MACROCYCLIC LACTONES” (priority 2010, published 2011).

The conditions of data set [1]: lactating mammals; ratio of 1 = even distribution between milk and plasma.

Regarding `c1ccc([C@H]2CN3CCSC3=N2)cc1` [Levamisole], the Solubility in water entry is recorded as “water soluble”.

Consider eprinomectin, for which the Solubility in water result is “nearly water insoluble”. Further, the “milk to plasma partition ratio” value in data set [1] is listed as about 0.2.
